Drawing on USRE39197E1, “Cell adhesion-inhibiting antiinflammatory and immune-suppressive compounds” (Abbott Laboratories, priority 1998, dated 2006), this text covers inhibition and IC50 for six compounds.

Test [1] has as its system adhesion of JY-8 cells (expressing LFA-1) to immobilized ICAM-3. In words: ICAM-3/JY-8 Cell Adhesion Assay. Format: cell-based, human. The note with it: Homo sapiens; 0.6 μM compound; JY-8 cells on immobilized ICAM-3/Ig. How it is done:
As such, it is expected that these compounds should block the interaction of LFA-1 with other CAM's. […] Compounds of the present invention may be evaluated for their ability to block the adhesion of JY-8 cells (a human EBV-transformed B cell line expressing LFA-1 on its surface) to immobilized ICAM-3, as follows:
ICAM-3/JY-8 Cell Adhesion Assay
For measurement of inhibitory activity in the cell-based adhesion assay, 96-well microtiter plates are were coated with 50 μL of recombinant ICAM-3/Ig (ICOS Corporation) at a concentration of 10 μg/mL in D-PBS w/o without Ca^++ or Mg^++ overnight at 4° C. The wells are were then washed twice with D-PBS, blocked by addition of 100 μL of D-PBS, 1% bovine serum albumin (BSA) by incubation for 1 hour at room temperature, and washed once with RPMI-1640/5% heat-inactivated fetal bovine serum (adhesion buffer). Dilutions of compounds to be assayed for ICAM-3/LFA-1 antagonistic activity are were prepared in adhesion buffer from 10 mM stock solutions in DMSO and 100 μL are were added to duplicate wells. JY-8 cells (a human EBV-transformed B cell line expressing LFA-1 on its surface; 100 μL at 0.75×10^6 cells/ml mL in adhesion buffer) are were then added to the wells. Microtiter plates are were incubated for 30 minutes at room temperature; the adherent cells are were then fixed with 50 μL of 14% glutaraldehyde/D-PBS and were incubated for an additional 90 minutes. The wells are were washed gently with dH2O; 50 μL of dH2O is was added, following followed by 50 μL of 1% crystal violet. After 5 minutes the plates are were washed 3× times with dH2O; 75 μL of dH2O and 225 μL of 95% EtOH are were added to each well to extract the crystal violet from the cells. Absorbance is was measured at […] in an ELISA plate reader. The percent inhibition of a candidate compound is was calculated using the following equation. [formula]

Test [2] has as its target T1, interaction between the integrin LFA-1 and its adhesion partner ICAM-1 (Homo sapiens, UniProt P20701).
T1 construct: Recombinant LFA-1 (100 μL of 0.7 μg/ml mL, ICOS Corporation) in D-PBS; purchased ICOS Corporation
As to the kind of experiment: ICAM-1/LFA-1 Biochemical Interaction Assay. The test is classed as binding. Particulars: 4 μM compound; recombinant LFA-1, biotinylated ICAM-1/Ig. A digest of the protocol: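 Plates coated with anti-LFA-1 antibody capture recombinant LFA-1; compound dilutions in D-PBS with 2 mM MgCl2 and 1% fish gelatin, then 0.8 μg/mL biotinylated ICAM-1/Ig added, 1 h RT. Bound ICAM-1 detected by Eu-streptavidin time-resolved fluorescence; % inhibition background-corrected against uncoated wells.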

Test [3] has as its system adherence of JY-8 cells (expressing LFA-1) to immobilized ICAM-1. As to the kind of experiment: ICAM-1/JY-8 Cell Adhesion Assay. Format: cell-based, human. Particulars: Homo sapiens.
Setting [4] is: JY-8, JY-8 cells on immobilized ICAM-1/Ig.

T1 sequence (P20701 26-1170): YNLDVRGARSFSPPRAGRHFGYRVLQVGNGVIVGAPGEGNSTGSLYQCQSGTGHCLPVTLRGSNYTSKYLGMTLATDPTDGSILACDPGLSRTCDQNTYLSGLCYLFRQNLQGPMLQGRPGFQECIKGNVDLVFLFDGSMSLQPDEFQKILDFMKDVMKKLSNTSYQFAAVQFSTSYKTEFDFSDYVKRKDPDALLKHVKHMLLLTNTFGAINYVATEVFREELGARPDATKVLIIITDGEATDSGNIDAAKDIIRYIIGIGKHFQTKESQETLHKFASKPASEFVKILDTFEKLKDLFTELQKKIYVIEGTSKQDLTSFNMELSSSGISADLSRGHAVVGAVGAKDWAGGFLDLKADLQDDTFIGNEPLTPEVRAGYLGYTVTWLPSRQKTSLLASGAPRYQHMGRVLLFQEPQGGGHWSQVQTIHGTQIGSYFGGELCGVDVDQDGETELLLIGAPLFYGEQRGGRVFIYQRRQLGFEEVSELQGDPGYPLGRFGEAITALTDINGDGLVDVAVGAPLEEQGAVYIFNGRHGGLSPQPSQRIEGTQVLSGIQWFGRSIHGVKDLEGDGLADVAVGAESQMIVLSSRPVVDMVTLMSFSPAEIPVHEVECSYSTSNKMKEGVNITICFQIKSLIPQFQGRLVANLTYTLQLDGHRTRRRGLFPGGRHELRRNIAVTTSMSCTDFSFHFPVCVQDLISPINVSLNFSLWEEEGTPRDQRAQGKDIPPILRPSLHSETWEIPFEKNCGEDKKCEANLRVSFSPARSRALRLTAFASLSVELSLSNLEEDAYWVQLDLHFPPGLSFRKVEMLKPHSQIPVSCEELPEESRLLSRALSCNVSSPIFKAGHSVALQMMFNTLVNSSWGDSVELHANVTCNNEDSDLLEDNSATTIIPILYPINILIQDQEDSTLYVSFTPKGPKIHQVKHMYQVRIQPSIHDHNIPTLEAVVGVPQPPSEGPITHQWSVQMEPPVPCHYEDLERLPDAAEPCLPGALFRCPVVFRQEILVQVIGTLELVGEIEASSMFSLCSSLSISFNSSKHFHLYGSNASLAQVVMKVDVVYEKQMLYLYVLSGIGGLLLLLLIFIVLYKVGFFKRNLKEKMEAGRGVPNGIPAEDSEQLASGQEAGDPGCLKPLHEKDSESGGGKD
T1 sequence (P05107 23-769 partner): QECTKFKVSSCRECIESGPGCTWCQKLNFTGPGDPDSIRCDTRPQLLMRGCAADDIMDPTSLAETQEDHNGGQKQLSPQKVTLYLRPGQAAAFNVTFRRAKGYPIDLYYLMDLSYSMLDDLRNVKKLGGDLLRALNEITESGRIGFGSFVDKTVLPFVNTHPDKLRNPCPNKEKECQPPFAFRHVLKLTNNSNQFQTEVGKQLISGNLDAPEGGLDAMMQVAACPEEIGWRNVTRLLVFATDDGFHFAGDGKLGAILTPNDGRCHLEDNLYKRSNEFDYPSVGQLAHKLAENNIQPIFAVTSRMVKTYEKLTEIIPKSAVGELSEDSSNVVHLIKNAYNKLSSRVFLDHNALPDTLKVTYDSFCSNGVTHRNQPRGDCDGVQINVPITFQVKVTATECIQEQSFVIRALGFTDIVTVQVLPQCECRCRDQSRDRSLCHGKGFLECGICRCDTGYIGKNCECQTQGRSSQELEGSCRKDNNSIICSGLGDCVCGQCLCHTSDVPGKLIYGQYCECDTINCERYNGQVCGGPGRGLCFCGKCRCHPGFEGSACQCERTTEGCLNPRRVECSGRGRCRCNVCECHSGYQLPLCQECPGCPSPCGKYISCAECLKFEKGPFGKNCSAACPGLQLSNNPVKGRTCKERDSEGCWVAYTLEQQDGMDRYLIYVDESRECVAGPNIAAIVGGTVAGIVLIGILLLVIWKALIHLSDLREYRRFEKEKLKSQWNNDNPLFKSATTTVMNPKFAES

As to `CC(=O)N1CCN(C(=O)/C=C/c2ccc(Sc3ccc(Br)cc3)c([N+](=O)[O-])c2)CC1` [Example 35, (4-Bromophenyl)[2-nitro-4-(E-((4-acetylpiperazin-1-yl)carbonyl)ethenyl)phenyl]sulfide], the inhibition (in general, the drop in the measured response relative to a control, in per cent) at 0.6 µM in test [1] came out at 100%. For the same compound, the inhibition at 4 µM in test [2] came out at 89%. Also, in test [3] (setting [4]), the 50% inhibitory concentration (IC50) (usually the concentration at which inhibition is half-maximal) came out at 430 nM.
On to `CCN(CC)C(=O)N1CCN(C(=O)/C=C/c2ccc(Sc3ccc(Cl)cc3Cl)c([N+](=O)[O-])c2)CC1` [Example 41, (2,4-Dichlorophenyl)[2-nitro-4-(E-((4-(diethylaminocarbonyl)piperazin-1-yl)carbonyl)ethenyl)phenyl]sulfide], for which the inhibition at 0.6 µM in test [1] was determined as 100%. Besides, in test [2], the inhibition at 4 µM stood at 83%. In test [3] (setting [4]), the IC50 was determined as 110 nM.
The matching figures for `CC(=O)N1CCN(C(=O)/C=C/c2ccc(Sc3ccccc3C)c([N+](=O)[O-])c2)CC1` [Example 45, (2-Methylphenyl)[2-nitro-4-(E-((4-acetylpiperazin-1-yl)carbonyl)ethenyl)phenyl]sulfide]: 100%, 88% and 50 nM.
The like results for `CC(=O)N1CCN(C(=O)/C=C/c2ccc(Sc3ccccc3Cl)c([N+](=O)[O-])c2)CC1` [Example 46, (2-Chlorophenyl)[2-nitro-4-(E-((4-acetylpiperazin-1-yl)carbonyl)ethenyl)phenyl]sulfide] were, in that order, 100%, 87% and 60 nM.
In test [1], `CCc1ccccc1Sc1ccc(/C=C/C(=O)N2CCN(C(C)=O)CC2)cc1[N+](=O)[O-]` [Example 49, (2-Ethylphenyl)[2-nitro-4-(E-((4-acetylpiperazin-1-yl)carbonyl)ethenyl)phenyl]sulfide] came in with an inhibition at 0.6 µM of 100%. Moreover, the inhibition at 4 µM in test [2] was found to be 93%. The same compound registered an IC50 in test [3] (setting [4]) of 20 nM.
`CC(=O)N1CCN(C(=O)/C=C/c2ccc(Sc3ccccc3C=O)c([N+](=O)[O-])c2)CC1` [Example 60, (2-Formylphenyl)[2-nitro-4-(E-((4-acetylpiperazin-1-yl)carbonyl)ethenyl)phenyl]sulfide]: the inhibition at 0.6 µM in test [1] was 100%. Moreover, the inhibition at 4 µM in test [2] was determined as 95%. This compound returned an IC50 in test [3] (JY-8 cells on immobilized ICAM-1/Ig) of 30 nM.
